Data as given in US8247596B2 (Sumitomo Chemical Company, Limited, priority 2007, dated 2012).

What was measured:
Type in all cases: in vivo
[1] = test system: Culex pipiens pallens; assay: Test Example 6: larvae of Culex pipiens pallens in treated water; conditions: 24 h, read-out: pest death rate
Description: (§1) A formulation of any one of the present compounds (7), (11), (12), (13), (17), (18t), (18c), (22), (24), (25t), (25c), (26t), (26c), (27), (29), (33), (34), (35), (36), (38), (40), (41), (43), (47), (49), (50) and (55) obtained according to Formulation Example 36 was diluted with water so that the active ingredient concentration was 500 ppm to obtain a test solution.
To 100 mL of ion-exchanged water, 0.7 ml of the test solution was added (active ingredient concentration: 3.5 ppm). Into the solution, 20 last-instar larvae of Culex pipiens pallens were released. One day after, the number of surviving Culex pipiens pallens was examined and the death rate of the pest was calculated.

[2] = test system: Musca domestica; assay: Test Example 4: filter paper/sucrose bait test on Musca domestica; conditions: 24 h, read-out: pest death rate
Description: as §1, with “compounds (1), (4), (5),” for “compounds”, “(13),” for “(13), (17),”, “(18c), (19), (20), (21),” for “(18c),”, “(29), (30), (31), (32),” for “(29),”, “(35),” for “(35), (36), (38),”, “(43),” for “(43), (47),”
(§2) A filter paper having a diameter of 5.5 cm was spread on the bottom of a polyethylene cup having a diameter of 5.5 cm and 0.7 ml of the test solution was added dropwise onto the filter paper. As a bait 30 mg of sucrose was uniformly placed on the filter paper. Into the polyethylene cup, 10 female imagoes of Musca domestica were released and the cup was sealed with a lid. After 24 hours, the number of surviving Musca domestica was examined and the death rate of the pest was calculated.

[3] = test system: Blattalla germanica; assay: Test Example 5: filter paper/sucrose bait test on Blattalla germanica; conditions: 144 h, read-out: pest death rate
Description: A formulation of any one of the present compounds (4), (5), (7), (12), (13), (18t), (18c), (22), (25t), (25c), (26t), (26c), (29), (30), (31), (32), (33), (34), (40), (41), (43), (49) and (55) obtained according to Formulation Example 36 was diluted with water so that the active ingredient concentration was 500 ppm to obtain a test solution.
as §2, with “2 male” for “10 female”, “Blattalla germanica” for “Musca domestica”, “6 days,” for “24 hours,”

Compound: CC(C)(C)ON=C1CCC(C(C#N)S(=O)(=O)CCC(F)(F)F)CC1 (stereo not drawn) [present compound (36), 2-[4-(t-butoxyimino)cyclohexyl]-2-(3,3,3-trifluoropropylsulfonyl)acetonitrile]
- pest or weed control at 3.5 ppm [1]: ≥ 95%

Compound: O=S(=O)(CCC(F)(F)F)CC1CCC(C=C(Br)Br)CC1 (stereo not drawn) [present compound (17), 1-(2,2-dibromovinyl)-4-(3,3,3-trifluoropropylsulfonylmethyl)cyclohexane]
- pest or weed control at 3.5 ppm [1]: ≥ 95%

Compound: COC(=O)C(C1CCC(F)(F)CC1)S(=O)(=O)CCC(F)(F)F (stereo not drawn) [present compound (11), methyl 2-(4,4-difluorocyclohexyl)-2-(3,3,3-trifluoropropylsulfonyl)acetate]
- pest or weed control at 500 ppm [2]: ≥ 90%
- pest or weed control at 3.5 ppm [1]: ≥ 95%

Compound: CC1(C)CCC(C(C#N)S(=O)(=O)CCC(F)(F)F)CC1 (stereo not drawn) [present compound (50), 2-(4,4-dimethylcyclohexyl)-2-(3,3,3-trifluoropropylsulfonyl)acetonitrile]
- pest or weed control at 500 ppm [2]: ≥ 90%
- pest or weed control at 3.5 ppm [1]: ≥ 95%

Compound: COC(=O)C(F)(C1CCC(F)(F)CC1)S(=O)(=O)CCC(F)(F)F (stereo not drawn) [present compound (12), methyl 2-(4,4-difluorocyclohexyl)-2-fluoro-2-(3,3,3-trifluoropropylsulfonyl)acetate]
- pest or weed control at 500 ppm [2]: ≥ 90%
- pest or weed control at 500 ppm [3]: 100%
- pest or weed control at 3.5 ppm [1]: ≥ 95%

Compound: FC(F)(F)CCSCC1CCC(C=C(Br)Br)CC1 (stereo not drawn) [present compound (24), 1-(2,2-dibromovinyl)-4-(3,3,3-trifluoropropylthiomethyl)cyclohexane]
- pest or weed control at 500 ppm [2]: ≥ 90%
- pest or weed control at 3.5 ppm [1]: ≥ 95%

Compound: FC(F)(F)CCSCC1CCC2(CC1)OCCO2 [present compound (1)]
- pest or weed control at 500 ppm [2]: ≥ 90%

Compound: N#CC(C1CCC(=NOCc2ccccc2)CC1)S(=O)(=O)CCC(F)(F)F (stereo not drawn) [present compound (38), 2-[4-(O-benzylhydroxylimino)cyclohexyl]-2-(3,3,3-trifluoropropylsulfonyl)acetonitrile]
- pest or weed control at 3.5 ppm [1]: ≥ 95%

Compound: NC(=O)C(F)(C1CCC(F)(F)CC1)S(=O)(=O)CCC(F)(F)F (stereo not drawn) [present compound (13), 2-(4,4-difluorocyclohexyl)-2-fluoro-2-(3,3,3-trifluoropropylsulfonyl)acetamide]
- pest or weed control at 500 ppm [2]: ≥ 90%
- pest or weed control at 500 ppm [3]: 100%
- pest or weed control at 3.5 ppm [1]: ≥ 95%

Compound: CON=C1CCC(CS(=O)(=O)CCC(F)(F)F)CC1 (stereo not drawn) [present compound (21), 4-(3,3,3-trifluoropropylsulfonylmethyl)-cyclohexanone O-methyloxime]
- pest or weed control at 500 ppm [2]: ≥ 90%

Compound: CC1CCC(C(C#N)S(=O)(=O)CCC(F)(F)F)CC1 (stereo not drawn) [present compound (49), 2-(4-methylcyclohexyl)-2-(3,3,3-trifluoropropylsulfonyl)acetonitrile]
- pest or weed control at 500 ppm [2]: ≥ 90%
- pest or weed control at 500 ppm [3]: 100%
- pest or weed control at 3.5 ppm [1]: ≥ 95%

Compound: N#CC(C1CCCCC1)S(=O)(=O)CCC(F)(F)F (stereo not drawn) [present compound (47), 2-cyclohexyl-2-(3,3,3-trifluoropropylsulfonyl)acetonitrile]
- pest or weed control at 3.5 ppm [1]: ≥ 95%

Compound: COC(=O)CCC#CC1CCC(CS(=O)(=O)CCC(F)(F)F)CC1 (stereo not drawn) [present compound (19), 5-[4-(3,3,3-trifluoropropylsulfonylmethyl)cycohexanyl]-4-pentynic acid methyl ester]
- pest or weed control at 500 ppm [2]: ≥ 90%

Compound: N#CC(C1CCC2(CC1)OCCO2)S(=O)(=O)CCC(F)(F)F (stereo not drawn) [present compound (27), 2-(1,4-dioxaspiro[4.5]dec-8-yl)-2-(3,3,3-trifluoropropylsulfonyl)acetonitrile]
- pest or weed control at 500 ppm [2]: ≥ 90%
- pest or weed control at 3.5 ppm [1]: ≥ 95%

Compound: O=S(=O)(CCC(F)(F)F)CC1CC=C(F)CC1 (stereo not drawn) [present compound (5)]
- pest or weed control at 500 ppm [2]: ≥ 90%
- pest or weed control at 500 ppm [3]: 100%

Compound: N#CC1CCC(CS(=O)(=O)CCC(F)(F)F)CC1 (stereo not drawn) [present compound (20), 1-cyano-4-(3,3,3-trifluoropropylsulfonylmethyl)cyclohexane]
- pest or weed control at 500 ppm [2]: ≥ 90%
